Test results published in US20250332178A1, “METHODS OF TREATING MYCOBACTERIAL INFECTIONS USING TETRACYCLINE COMPOUNDS” (priority 2018, published 2025).
Read-outs that look alike come from different tables or passages of the source.

What was measured:
[1] = daily; previously shown (Bax et al.); cited from earlier work
[2] = test system: M. abscessus subsp. abscessus CIP 104536; type: cell-based; details: at 4 mg/L, after 7 days of drug exposure; subculture plates 16 mg/L
[3] = Stability of antimicrobial drugs, large-plate agar diffusion assay; type: physicochemical; details: within the first 24 hours
Procedure: Antimicrobial activity over time was assessed using the standard large-plate agar diffusion assay as previously described in detail (Bennett et al., Appl. Microbiol. 1966, 14 (2): 170-7). In short, a Staphylococcus aureus strain susceptible to omadacycline and a Micrococcus luteus strain susceptible to tigecycline were plated onto solid diagnostic sensitivity test (D.S.T.) agar (Oxoid, Hampshire, UK). A two-fold increasing standard concentration series was prepared.

CN(C)c1cc(NC(=O)CNC(C)(C)C)c(O)c2c1C[C@H]1C[C@H]3[C@H](N(C)C)C(O)=C(C(N)=O)C(=O)[C@@]3(O)C(O)=C1C2=O [Tigecycline, tigecycline]
decline in concentration [1]: 80% | selection of drug resistance above the spontaneous mutation frequency [2]: 0.6%

CN(C)c1cc(CNCC(C)(C)C)c(O)c2c1C[C@H]1C[C@H]3C(N(C)C)C(O)=C(C(N)=O)C(=O)[C@@]3(O)C(O)=C1C2=O (stereo partly drawn) [Omadacycline, (4aS,5aR,12aS)-4,7-bis(dimethylamino)-3,10,12,12a-tetrahydroxy-9-((neopentylamino)methyl)-1,11-dioxo-1,4,4a,5,5a,6,11,12a-octahydrotetracene-2-carboxamide]
decline in concentration [3]: 20%
